Source: paper PMC2593629 (Bioorganic & medicinal chemistry letters, 2008)
Where two headings read alike, the source gives them in different places.

Legend:
CB1 [1] = biological target: T1, CB1 (Mus musculus, UniProt P47746); experiment: biochemical
[2] = tested on: CB1 -/- mouse brain membranes; assay type: biochemical
mice = settings: mouse
mouse brain MAGL = biological target: T2, mouse brain MAGL (Mus musculus, UniProt O35678); experiment: MAGL activity in mouse brain membranes; assay type: biochemical; settings: read-out: MAGL IC50
T2 sequence (O35678 1-303): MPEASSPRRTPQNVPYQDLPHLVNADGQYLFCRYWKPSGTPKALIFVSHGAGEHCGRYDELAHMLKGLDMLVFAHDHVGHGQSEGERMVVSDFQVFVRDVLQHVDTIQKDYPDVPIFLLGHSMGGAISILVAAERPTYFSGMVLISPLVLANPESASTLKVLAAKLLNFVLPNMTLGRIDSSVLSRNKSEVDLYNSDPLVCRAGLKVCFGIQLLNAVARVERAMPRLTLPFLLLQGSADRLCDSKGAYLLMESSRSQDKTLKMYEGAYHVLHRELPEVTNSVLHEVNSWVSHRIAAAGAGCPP

[3] = biological target: eCB1 (CB1 overexpressed in HEK293 cells) (Mus musculus, UniProt P47746); assay type: binding
CB1 [4] = biological target: T1, CB1; experiment: biochemical; assay type: binding

T1 sequence (P47746 whole entry): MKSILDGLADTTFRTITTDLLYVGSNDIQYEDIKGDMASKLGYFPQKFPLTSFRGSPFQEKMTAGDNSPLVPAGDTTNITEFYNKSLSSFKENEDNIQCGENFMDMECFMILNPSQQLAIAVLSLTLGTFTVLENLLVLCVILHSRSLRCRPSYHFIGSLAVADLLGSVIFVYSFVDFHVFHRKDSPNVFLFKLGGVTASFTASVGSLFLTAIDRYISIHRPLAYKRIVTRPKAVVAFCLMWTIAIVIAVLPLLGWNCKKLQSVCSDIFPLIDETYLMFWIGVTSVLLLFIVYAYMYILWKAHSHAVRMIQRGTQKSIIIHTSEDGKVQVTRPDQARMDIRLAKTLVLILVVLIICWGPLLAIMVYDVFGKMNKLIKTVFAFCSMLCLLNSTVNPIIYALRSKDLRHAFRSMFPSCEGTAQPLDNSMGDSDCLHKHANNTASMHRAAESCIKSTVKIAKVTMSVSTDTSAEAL
eCB1 (CB1 overexpressed in HEK293 cells), sequence (P47746 whole entry): as above

CCCCC/C=C\C/C=C\C/C=C\C/C=C\CCCC(=O)OC(CO)CO [2-AG, 2-arachidonoylglycerol]
EC50 (CB1 [1]; EC50 for stimulation of GTPγS binding): 1000 nM | EC50 (CB1 [1]; EC50 of 2-AG for stimulation of GTPγS binding after preincubation with OP 1): 300 nM | Stimulation of GTPγS binding in CB1 -/- membranes [2]: significant

CCCCCCCCCCCCP(=O)(OCC)Oc1nc(Cl)c(Cl)cc1Cl (centres unmarked) [OP 3]
In vivo effectiveness in modulating behavior and brain 2-AG and AA levels (mice): not effective in vivo

CCCCCCCCCCCCP(=O)(OCC)Oc1ccc(C#N)cc1 (centres unmarked) [OP 4]
IC50 (mouse brain MAGL; substrate 2-AG): 70 nM | IC50 (mouse brain MAGL; substrate [14C]1-oleoylglycerol): 70 nM | In vivo effectiveness in modulating behavior and brain 2-AG and AA levels (mice): very effective in vivo in all respects

CCOP(=O)(OCC)Oc1nc(Cl)c(Cl)cc1Cl [OP 7, chlorpyrifos oxon]
Sensitivity of eCB1 [3H]CP55940 binding [3]: not sensitive

CCCCCCCCCCCCS(=O)(=O)F [OS 9]
In vivo effectiveness in modulating behavior and brain 2-AG and AA levels (mice): same in vivo effects as OP 1 and OP 4

CCCCCCCCS(=O)(=O)F [OS 10]
In vivo effectiveness in modulating behavior and brain 2-AG and AA levels (mice): same in vivo effects as OP 1 and OP 4

CCCCCCC(C)(C)c1ccc([C@@H]2C[C@H](O)CC[C@H]2CCCO)c(O)c1 [[^3H]CP55940]
Kd (CB1 [4]): 0.86 nM
